Legend:
Format in all cases: cell-based, human
[1] = test system: cell surface LDLR activity; experiment: Dil-LDL uptake assay in HepG2 naïve cells; conditions: 33.3 μM; HepG2 naïve cells
Procedure: HepG2 naive cells and HEK293 naive cells were plated in 96-well plates (CellBind black plate with clear bottom (Corning; Cat #3340)) at a density of 25,000 cells/well, in complete media (DMEM high glucose (+sodium pyruvate for HepG2) (Wisent)+10% FBS). After 20 hours, cells were washed for 30 min with serum free DMEM media (100 μl/well), the wash media was removed and replaced with 100 μl/well of incubation media (DMEM high glucose (+sodium pyruvate for HepG2) (Wisent)+0.07% BSA (Sigma-Aldrich)) containing compound at various concentrations ([…]) or DMSO control (0.4% final). Each condition was prepared in triplicates. After 6 hours incubation at 37° C., Dil-LDL (Biomedical Technologies (Cat #BT-904)) was added to the cell media (5 μl) at 5 μg/ml final concentration, and cells returned to tissue culture incubator for another 18 hours (a total of 24 hours incubation with the compounds). After 2 washes (200 μl/well) with ice-cold D-PBS (Wisent) and aspiration of the final wash, plates were scanned (bottom read) on a SpectraMax GeminiEM™ plate reader (Molecular Devices). For each well, raw Dil-LDL uptake was measured as the average fluorescence intensity (RFU) (ex: 520 nm/em: 575 nm, cutoff: 550 nm) of 9 readings in 3 different points in the well. Dil-LDL uptake in each well was corrected for total number of cells by performing a CyQuant™ cell assay (Invitrogen; Cat #C7026). Namely, after recording the Dil fluorescence, the plate was frozen overnight at −80° C. The next day, the plates were thawed at room temperature, the cells lysed according to the manufacturer's protocol, and the number of cells/well was determined by measuring the fluorescence (RFU) of the CyQuant green fluorescent dye bound to the cellular nucleic acids (ex: 485 nm/em: 538 nm, cutoff: 515 nm). For each condition, Dil-RFU was divided by CyQuant-RFU. Corrected dil-LDL uptake is reported as % DMSO control and was obtained from triplicate wells.
The PCSK9 inhibitory compounds were also characterized using a Dil-LDL fluorescent uptake assay as described in Poirier et al., J. Biol. Chem. 284: 28856-28864, 2009. The method entails the fluorescence measurement of the Dil-LDL cellular incorporation via LDLR internalization (a measurement of cell surface LDLR activity) in human hepatocyte derived HuH7 or HepG2 cell lines, or human embryonic HEK293 cells, in the presence or absence of compounds.
HepG2 naïve cells and HEK293 naïve cells were plated in 96-well plates (CellBind™ black plate with clear bottom (Corning; Cat #3340)). At 20 h post-seeding, cells were incubated in the absence (DMSO or negative control) or in the presence of different concentrations of compounds. Each condition was prepared in triplicates. After 6 hours incubation, Dil-LDL (Biomedical Technologies (Cat #BT-904)) was added to the cell media, and cells returned to tissue culture incubator for another 18 hours. Plates were scanned (bottom read) on a SpectraMax GeminiEM™ plate reader (Molecular Devices). For each well, raw Dil-LDL uptake was measured as the average fluorescence intensity (RFU) (ex: 520 nm/em: 575 nm, cutoff: 550 nm) of 9 readings in 3 different points in the well. Dil-LDL uptake in each well was corrected for total number of cells by performing a CyQuant™ cell assay (Invitrogen, Cat #C7026) according to the manufacturer's instructions. Corrected Dil-LDL uptake is reported as a % of DMSO control and was obtained from triplicate wells.

cell-surface LDLR = experiment: Immunofluorescence of cell-surface LDLR in HepG2 naïve cells; conditions: 33.3 μM, 20 h, non-permeabilized cells
Procedure: HepG2 naïve cells were plated on Poly-L-Lysine-coated (50 ug/ml) round microscope cover slips 1.12 mm thickness (Fisherbrand 12CIR #1) that were placed in a 24-well cell culture plate. Seeding was performed in DMEM complete media (10% FBS) and 24 hours later the media was swapped for media (+0.07% BSA) containing 33.3 μM of the different inhibitor compounds (300 μl/well). A volume of DMSO equivalent to the volume of inhibitor compound was also diluted in 0.07% BSA containing media and used as a negative control. After a 20 hour incubation period, the cells were washed 3× with PBS and then fixed for 10 min with 3.7% paraformaldehyde. Immunofluorescence of human LDLR (green labeling) was performed under non-permeabilizing conditions. After an additional 3 washes with PBS, cells were blocked for 30 min with 1% BSA, followed by overnight incubation at 4° C. with primary antibody (1:200 goat polyclonal anti-hLDLR in 1% BSA, R&D Systems). […] Immunofluorescence analyses were performed with a confocal miscroscope (Zeiss LSM-710).
The PCSK9 inhibitory compounds were characterized by immunofluorescence for cell-surface LDLR and for human transferrin receptor, as control, in HepG2 naïve cells. Cells were plated on Poly-L-Lysine-coated (50 ug/ml) round microscope cover slips 1.12 mm thickness (Fisherbrand 12CIR #1) that were placed in a 24-well cell culture plate. […]

[2] = test system: HepG2 stable cells over-expressing WT PCSK9(+V5); experiment: MTT toxicity assay; conditions: 33.3 μM or less; 24 h
Procedure: HepG2 stable cells over-expressing hPCSK9(+V5) were seeded in complete DMEM (high glucose+sodium pyruvate) (Wisent)+10% FBS media in 96-well plates (Greiner BioOne) at a density of 1×10^5 cells/well (100 μl) and incubated for 20 hours. Cells were rinsed once with 100 ul/well of serum free DMEM media, followed by addition of 100 μl/well of DMEM (high glucose+sodium pyruvate) (Wisent)+0.07% BSA (Sigma-Aldrich) media containing compound at various concentrations (11, 33, 100 μM) or DMSO control (0.4% final) followed by overnight (24 hours) incubation. The MTT assay (Promega) consisted of addition of 20 μl/well MTT reagent and incubation for 45 minutes at 37° C., following the manufacturer's instructions. Absorbance was recorded at 490 nm and corrected for background due to nonspecific absorbance (690 nm).
For the MTT toxicity assay, HepG2 stable cells over-expressing WT PCSK9(+V5) were seeded in 96-well plates (Greiner BioOne) and incubated for 20 hours. Following a brief wash, cells were incubated overnight (24 hours) in the presence of increasing concentrations (11, 33, 100 μM) of compounds or in the presence of DMSO (control). The MTT assay (Promega) consisted of addition of 20 μl/well MTT reagent and incubation for 45 minutes at 37° C., following the manufacturer's instructions. Absorbance was recorded at 490 nm and corrected for background due to nonspecific absorbance (690 nm). Compounds with a low toxicity at 33.3 μM or less were selected as exemplified in FIG. 3 for compounds 19, 22a, 23, 4 and 17.

`CC(C)[C@H](NC(=O)c1ccc(-c2ccccc2)cc1)C(=O)N[C@@H](Cc1ccccc1)C(=O)N[C@@H](C)C(=O)NCB(O)O` [Example 2, {[(2S)-2-[(2S)-2-[(2S)-3-Methyl-2-[(4-phenylphenyl)formamido]butanamido]-3-phenylpropanamido]propanamido]methyl}boronic acid] was tested, and the “Dil-LDL uptake (FIG. 5A, in words)” value [1] was “no measurable activity”.
In the case of `CCCCCCCCCC(=O)N[C@H](C(=O)N[C@@H](Cc1ccccc1)C(=O)N[C@@H](C)C(=O)NC(CCC(N)=O)C(O)C(F)(F)F)C(C)C` (stereo partly drawn) [Example 19, N-((2S)-1-(((2S)-1-(((2S)-1-((6-Amino-1,1,1-trifluoro-2-hydroxy-6-oxohexan-3-yl)amino)-1-oxopropan-2-yl)amino)-1-oxo-3-phenylpropan-2-yl)amino)-3-methyl-1-oxobutan-2-yl)decanamide], the “Dil-LDL uptake (FIG. 5A, in words)” value [1] is reported as “increase in the Dil-LDL uptake”, the “LDLR at the cell surface (immunofluorescence)” value (cell-surface LDLR) is reported as “increase of LDLR at the cell surface” and the “toxicity in MTT assay” value [2] is reported as “low toxicity”.
`COC(=O)CCC(NC(=O)[C@H](C)NC(=O)[C@H](Cc1ccccc1)NC(=O)[C@@H](NC(=O)OC)C(C)C)B(O)O` (mixture of isomers) [Example 17, [(1R/S)-4-Methoxy-1-[(2S)-2-[(2S)-2-[(2S)-2-[(methoxycarbonyl)amino]-3-methylbutanamido]-3-phenylpropanamido]propanamido]-4-oxobutyl]boronic acid] was tested, and the “Dil-LDL uptake (FIG. 5A, in words)” value [1] was “no measurable activity” and the “toxicity in MTT assay” value [2] was “low toxicity”.
`CCCCCCCCCC(=O)N[C@H](C(=O)N[C@@H](Cc1ccccc1)C(=O)NC(C)C(=O)NC(CCC(N)=O)C(C)O)C(C)C` (single isomer, unassigned) [Example 22a] was tested, and the “Dil-LDL uptake (FIG. 5A, in words)” value [1] was “increase in the Dil-LDL uptake” and the “toxicity in MTT assay” value [2] was “low toxicity”.
With `CC(C)[C@H](NC(=O)Cc1ccc(OC(F)(F)F)cc1)C(=O)N[C@@H](Cc1ccccc1)C(=O)N[C@@H](C)C(=O)NC(CCC(N)=O)C(O)C(F)(F)F` (stereo partly drawn) [Example 23, 6,6,6-Trifluoro-5-hydroxy-4-((S)-2-((S)-2-((S)-3-methyl-2-(2-(4-(trifluoromethoxy)phenyl)acetamido)butanamido)-3-phenylpropanamido)propanamido)hexanamide] the “Dil-LDL uptake (FIG. 5A, in words)” value [1] was “increase in the Dil-LDL uptake” and the “toxicity in MTT assay” value [2] was “low toxicity”.
`COC(=O)N[C@H](C(=O)N[C@@H](Cc1ccccc1)C(=O)N[C@@H](C)C(=O)NCB(O)O)C(C)C` [Example 1] was tested, and the “Dil-LDL uptake (FIG. 5A, in words)” value [1] was “no measurable activity”.
In the case of `CCCCCCCCCC(=O)N[C@H](C(=O)N[C@@H](Cc1ccccc1)C(=O)N[C@@H](C)C(=O)NCB(O)O)C(C)C` [Example 4, {[(2S)-2-[(2S)-2-[(2S)-2-Decanamido-3-methylbutanamido]-3-phenylpropanamido]propanamido]methyl}boronicacid], the “toxicity in MTT assay” value [2] is reported as “low toxicity”.
With `CCCCCCCCCC(=O)N[C@H](C(=O)N[C@@H](Cc1ccccc1)C(=O)N[C@@H](C)C(=O)NC(CCC(N)=O)C(O)CF)C(C)C` (stereo partly drawn) [Example 21a, N-((2S)-1-(((2S)-1-(((2S)-1-((6-Amino-1-fluoro-2-hydroxy-6-oxohexan-3-yl)amino)-1-oxopropan-2-yl)amino)-1-oxo-3-phenylpropan-2-yl)amino)-3-methyl-1-oxobutan-2-yl)decanamide] the “Dil-LDL uptake (FIG. 5A, in words)” value [1] was “increase in the Dil-LDL uptake”.
